Results as given in US20250230193A1, “CYCLIC COMPOUND HAVING SELECTIVE KRAS INHIBITORY EFFECT ON HRAS AND NRAS” (CHUGAI SEIYAKU KABUSHIKI KAISHA, priority 2022, published 2025).

Assays:
[1] = molecular target: GDP-bound NRAS wild-type protein (Homo sapiens, UniProt P01111); experiment: Binding to NRAS by surface plasmon resonance (SPR), Single Cycle Kinetics; details: KD ratio NRAS/KRAS, SPR
[2] = molecular target: GDP-bound HRAS wild-type protein (Homo sapiens, UniProt P01112); experiment: Binding to HRAS by surface plasmon resonance (SPR), Single Cycle Kinetics; details: KD ratio HRAS/KRAS, SPR
Sequence of GDP-bound HRAS wild-type protein (P01112 whole entry): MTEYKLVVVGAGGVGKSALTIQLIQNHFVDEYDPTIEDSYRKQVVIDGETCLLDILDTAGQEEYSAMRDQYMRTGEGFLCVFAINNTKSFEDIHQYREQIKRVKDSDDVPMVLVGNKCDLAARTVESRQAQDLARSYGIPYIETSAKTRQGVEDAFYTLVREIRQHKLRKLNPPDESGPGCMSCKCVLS

Sequence of GDP-bound NRAS wild-type protein (P01111 whole entry): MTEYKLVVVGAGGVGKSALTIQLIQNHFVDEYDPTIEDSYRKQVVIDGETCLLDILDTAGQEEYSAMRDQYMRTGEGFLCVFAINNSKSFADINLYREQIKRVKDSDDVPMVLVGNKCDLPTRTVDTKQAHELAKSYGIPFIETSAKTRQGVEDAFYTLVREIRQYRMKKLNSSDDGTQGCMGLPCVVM

| SMILES | NRAS/KRAS (ratio of KD value with respect to GDP-bound NRAS wild-type protein to KD value with respect to KRAS) [1] | HRAS/KRAS (ratio of KD value with respect to GDP-bound HRAS wild-type protein to KD value with respect to KRAS) [2] |
| --- | --- | --- |
| CCO[C@@H]1C[C@H]2C(=O)NC3(CCC3)C(=O)N(C)[C@@H](C3CCCC3)C(=O)N(CCC3CCC3)[C@H](C(=O)N(C)C)CC(=O)N(C)[C@@H](CC)C(=O)N[C@@H]([C@@H](C)CC)C(=O)N(C)CC(=O)N(C)[C@H]3CCCCN(C3=O)[C@@H](Cc3ccc(C(F)(F)F)cc3)C(=O)N(C)CC(=O)N[C@@H](CCc3cc(F)c(C(F)(F)F)c(F)c3)C(=O)N2C1 [PP0645] | B (a compound having 3 or more and less than 10 is denoted as B) | B (a compound having 3 or more and less than 10 is denoted as B) |
| CCO[C@@H]1C[C@H]2C(=O)NC3(CCC3)C(=O)N(C)[C@@H](C3CCCC3)C(=O)N(CCC3CCCC3)[C@H](C(=O)N(C)C)CC(=O)N(C)[C@@H](CC)C(=O)N[C@@H]([C@@H](C)CC)C(=O)N(C)CC(=O)N(C)[C@H]3CCCCN(C3=O)[C@@H](Cc3ccc(C(F)(F)F)cc3)C(=O)N(C)CC(=O)N[C@@H](CCc3cc(F)c(C(F)(F)F)c(F)c3)C(=O)N2C1 [PP0646] | C (A compound having a KD ratio of 0.1 or more and less than 3 is denoted as C) | B (a compound having 3 or more and less than 10 is denoted as B) |
| CCO[C@@H]1C[C@H]2C(=O)NC3(CCC3)C(=O)N(C)[C@@H](C3CCCC3)C(=O)N(CCc3ccccc3)[C@H](C(=O)N(C)C)CC(=O)N(C)[C@@H](CC)C(=O)N[C@@H]([C@@H](C)CC)C(=O)N(C)CC(=O)N(C)[C@H]3CCCCN(C3=O)[C@@H](Cc3ccc(C(F)(F)F)cc3)C(=O)N(C)CC(=O)N[C@@H](CCc3cc(F)c(C(F)(F)F)c(F)c3)C(=O)N2C1 [PP0647] | C (A compound having a KD ratio of 0.1 or more and less than 3 is denoted as C) | B (a compound having 3 or more and less than 10 is denoted as B) |
| CCO[C@@H]1C[C@H]2C(=O)NC3(CCC3)C(=O)N(C)[C@@H](C3CCCC3)C(=O)N(CC)[C@H](C(=O)N3CCOCC3)CC(=O)N(C)[C@@H](CC(C)C)C(=O)N[C@@H]([C@@H](C)CC)C(=O)N(C)CC(=O)N(C)[C@H]3CCCCN(C3=O)[C@@H](Cc3ccc(C(F)(F)F)cc3)C(=O)N(C)CC(=O)N[C@@H](CCc3cc(F)c(C(F)(F)F)c(F)c3)C(=O)N2C1 [PP0648] | B (a compound having 3 or more and less than 10 is denoted as B) | B (a compound having 3 or more and less than 10 is denoted as B) |
| CCCN1C(=O)[C@H](C2CCCC2)N(C)C(=O)C2(CCC2)NC(=O)[C@@H]2C[C@@H](OCC)CN2C(=O)[C@H](CCc2cc(F)c(C(F)(F)F)c(F)c2)NC(=O)CN(C)C(=O)[C@H](Cc2ccc(C(F)(F)F)cc2)N2CCCC[C@@H](C2=O)N(C)C(=O)CN(C)C(=O)[C@H]([C@@H](C)CC)NC(=O)[C@H](CC(C)C)N(C)C(=O)C[C@H]1C(=O)N1CCOCC1 [PP0649] | C (A compound having a KD ratio of 0.1 or more and less than 3 is denoted as C) | B (a compound having 3 or more and less than 10 is denoted as B) |
| CCO[C@@H]1C[C@H]2C(=O)NC3(CCC3)C(=O)N(C)[C@@H](C3CCCC3)C(=O)N(CCC3CCC3)[C@H](C(=O)N3CCOCC3)CC(=O)N(C)[C@@H](CC(C)C)C(=O)N[C@@H]([C@@H](C)CC)C(=O)N(C)CC(=O)N(C)[C@H]3CCCCN(C3=O)[C@@H](Cc3ccc(C(F)(F)F)cc3)C(=O)N(C)CC(=O)N[C@@H](CCc3cc(F)c(C(F)(F)F)c(F)c3)C(=O)N2C1 [PP0650] | C (A compound having a KD ratio of 0.1 or more and less than 3 is denoted as C) | B (a compound having 3 or more and less than 10 is denoted as B) |
| CCO[C@@H]1C[C@H]2C(=O)NC3(CCC3)C(=O)N(C)[C@@H](C3CCCC3)C(=O)N(CCC3CCCC3)[C@H](C(=O)N3CCOCC3)CC(=O)N(C)[C@@H](CC(C)C)C(=O)N[C@@H]([C@@H](C)CC)C(=O)N(C)CC(=O)N(C)[C@H]3CCCCN(C3=O)[C@@H](Cc3ccc(C(F)(F)F)cc3)C(=O)N(C)CC(=O)N[C@@H](CCc3cc(F)c(C(F)(F)F)c(F)c3)C(=O)N2C1 [PP0651] | B (a compound having 3 or more and less than 10 is denoted as B) | B (a compound having 3 or more and less than 10 is denoted as B) |
| CCO[C@@H]1C[C@H]2C(=O)NC3(CCC3)C(=O)N(C)[C@@H](C3CCCC3)C(=O)N(CCc3ccccc3)[C@H](C(=O)N3CCOCC3)CC(=O)N(C)[C@@H](CC(C)C)C(=O)N[C@@H]([C@@H](C)CC)C(=O)N(C)CC(=O)N(C)[C@H]3CCCCN(C3=O)[C@@H](Cc3ccc(C(F)(F)F)cc3)C(=O)N(C)CC(=O)N[C@@H](CCc3cc(F)c(C(F)(F)F)c(F)c3)C(=O)N2C1 [PP0652] | B (a compound having 3 or more and less than 10 is denoted as B) | B (a compound having 3 or more and less than 10 is denoted as B) |
| CC[C@H](C)[C@@H]1NC(=O)[C@H](CC)N(C)C(=O)C[C@@H](C(=O)N(C)C)N(C)C(=O)[C@H](C2CCCC2)N(C)C(=O)C2(CCC2)NC(=O)[C@@H]2CCN2C(=O)[C@H](CCc2cc(F)c(C(F)(F)F)c(F)c2)NC(=O)CN(C)C(=O)[C@H](Cc2ccc(C(F)(F)F)cc2)N2CCCCC[C@@H](C2=O)N(C)C(=O)CN(C)C1=O [PP0654] | B (a compound having 3 or more and less than 10 is denoted as B) | B (a compound having 3 or more and less than 10 is denoted as B) |
| CC[C@H](C)[C@@H]1NC(=O)[C@H](CC)N(C)C(=O)C[C@@H](C(=O)N(C)C)N(C)C(=O)[C@H](C2CCCC2)N(C)C(=O)C2(CCC2)NC(=O)[C@@H]2CCCCN2C(=O)[C@H](CCc2cc(F)c(C(F)(F)F)c(F)c2)NC(=O)CN(C)C(=O)[C@H](Cc2ccc(C(F)(F)F)cc2)N2CCCCC[C@@H](C2=O)N(C)C(=O)CN(C)C1=O [PP0655] | B (a compound having 3 or more and less than 10 is denoted as B) | B (a compound having 3 or more and less than 10 is denoted as B) |
| CC[C@H](C)[C@@H]1NC(=O)[C@H](CC)N(C)C(=O)C[C@@H](C(=O)N(C)C)N(C)C(=O)[C@H](C2CCCC2)N(C)C(=O)C2(CCC2)NC(=O)[C@@H]2C[C@@H](N3CCC(F)(F)CC3)CN2C(=O)[C@H](CCc2cc(F)c(C(F)(F)F)c(F)c2)NC(=O)CN(C)C(=O)[C@H](Cc2ccc(C(F)(F)F)cc2)N2CCCC[C@@H](C2=O)N(C)C(=O)CN(C)C1=O [PP0656] | C (A compound having a KD ratio of 0.1 or more and less than 3 is denoted as C) | C (A compound having a KD ratio of 0.1 or more and less than 3 is denoted as C) |
| CC[C@H](C)[C@@H]1NC(=O)[C@H](CC)N(C)C(=O)C[C@@H](C(=O)N(C)C)N(C)C(=O)[C@H](C2CCCC2)N(C)C(=O)C2(CCC2)NC(=O)[C@@H]2CCN2C(=O)[C@H](CCc2cc(F)c(C(F)(F)F)c(F)c2)NC(=O)CN(C)C(=O)[C@H](Cc2ccc(C(F)(F)F)cc2)N2CCCC[C@@H](C2=O)N(C)C(=O)CN(C)C1=O [PP0657] | B (a compound having 3 or more and less than 10 is denoted as B) | B (a compound having 3 or more and less than 10 is denoted as B) |
| CC[C@H](C)[C@@H]1NC(=O)[C@H](CC)N(C)C(=O)C[C@@H](C(=O)N(C)C)N(C)C(=O)[C@H](C2CCCC2)N(C)C(=O)C2(CCC2)NC(=O)[C@@H]2CCCCN2C(=O)[C@H](CCc2cc(F)c(C(F)(F)F)c(F)c2)NC(=O)CN(C)C(=O)[C@H](Cc2ccc(C(F)(F)F)cc2)N2CCCC[C@@H](C2=O)N(C)C(=O)CN(C)C1=O [PP0658] | C (A compound having a KD ratio of 0.1 or more and less than 3 is denoted as C) | B (a compound having 3 or more and less than 10 is denoted as B) |
| CC[C@H](C)[C@@H]1NC(=O)[C@H](CC)N(C)C(=O)C[C@@H](C(=O)N(C)C)N(CC)C(=O)[C@H](C2CCCC2)N(C)C(=O)C2(CCC2)NC(=O)[C@@H]2C[C@H](N3CCC(F)(F)CC3)CN2C(=O)[C@H](CCc2cc(F)c(C(F)(F)F)c(F)c2)NC(=O)CN(C)C(=O)[C@H](Cc2ccc(C(F)(F)F)cc2)N2CCCC[C@@H](C2=O)N(C)C(=O)CN(C)C1=O [PP0659] | B (a compound having 3 or more and less than 10 is denoted as B) | B (a compound having 3 or more and less than 10 is denoted as B) |
| CC[C@H](C)[C@@H]1NC(=O)[C@H](CC)N(C)C(=O)C[C@@H](C(=O)N(C)C)N(CC)C(=O)[C@H](C2CCCC2)N(C)C(=O)C2(CCC2)NC(=O)[C@@H]2CCN2C(=O)[C@H](CCc2cc(F)c(C(F)(F)F)c(F)c2)NC(=O)CN(C)C(=O)[C@H](Cc2ccc(C(F)(F)F)cc2)N2CCCC[C@@H](C2=O)N(C)C(=O)CN(C)C1=O [PP0660] | B (a compound having 3 or more and less than 10 is denoted as B) | B (a compound having 3 or more and less than 10 is denoted as B) |
